The values below come from US20220273671A1, “TOPICAL FORMULATIONS FOR TREATMENT OF PERIPHERAL NEUROPATHIES” (priority 2019, published 2022).

SMILES strings stand for the structures. Converted amounts (≈) assume the structure as drawn.

The nature of data set [1]: Plasma pharmacokinetics of topical pirenzepine formulations in healthy volunteers, 14 days. As to conditions: any subject, any time point, any day.
Procedure: PK: Blood samples were collected for the determination of pirenzepine concentration at the following nominal times:
Blood samples on Days 1, 7, and 14 were collected via either the indwelling intravenous (IV) cannula to reduce the frequency of direct venipuncture (at the discretion of the Investigator).
A validated liquid chromatography tandem mass-spectroscopy method (LLOQ: 0.1 ng/mL and ULOQ: 200 ng/mL) was used to determine the concentration of pirenzepine in plasma. […] For the pirenzepine concentration analysis in biopsy samples, a qualified method (LLOQ 1.00 mg/mL) was used.
Pirenzepine concentrations in plasma and skin biopsies were evaluated using Phoenix™ WinNonlin® version 8.0 (Pharsight Corporation, USA) and Microsoft® Excel® 2010 (Microsoft Corporation, USA).
Pharmacokinetic Population: According to the statistical analysis plan, the PK population comprised all randomized subjects with evaluable plasma concentrations of pirenzepine (ie, subjects with plasma concentrations considered sufficient and interpretable [at the discretion of the pharmacokineticist]). […] Any exclusion from the PK population was determined by the pharmacokineticist on blinded data, after database lock and prior to unblinding the study. […]
The goodness of fit of the regression was evaluated using the adjusted square of the correlation coefficient (R2 adjusted). […]
For data set [2] the following is noted: cited from earlier work.
A further data set concerns diabetic mice. As to conditions: topical; cited from earlier work.
For a further data set, the target named is T1, M1R (Homo sapiens, UniProt P11229).
T1 sequence (P11229 1-460): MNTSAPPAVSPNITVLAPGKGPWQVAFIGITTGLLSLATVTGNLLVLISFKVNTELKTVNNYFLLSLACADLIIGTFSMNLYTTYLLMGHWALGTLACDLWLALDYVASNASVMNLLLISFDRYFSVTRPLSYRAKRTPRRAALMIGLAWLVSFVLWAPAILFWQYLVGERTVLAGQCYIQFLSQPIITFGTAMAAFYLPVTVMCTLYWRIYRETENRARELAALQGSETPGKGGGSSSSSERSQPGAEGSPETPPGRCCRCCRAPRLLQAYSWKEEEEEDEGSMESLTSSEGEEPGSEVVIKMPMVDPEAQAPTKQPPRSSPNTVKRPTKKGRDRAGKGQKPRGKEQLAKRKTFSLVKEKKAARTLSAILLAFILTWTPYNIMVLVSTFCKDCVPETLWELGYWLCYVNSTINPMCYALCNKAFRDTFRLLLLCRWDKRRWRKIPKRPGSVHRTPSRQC
To be noted: cited from earlier work.

Consider `O=C1Nc2cccnc2N(C(=O)CN2CCNCC2)c2ccccc21` [desmethyl pirenzepine], for which the “plasma level of the primary metabolite” value in data set [1] is on record as “not quantifiable”.
As to `CN1CCN(CC(=O)N2c3ccccc3C(=O)Nc3cccnc32)CC1` [pirenzepine], in data set [2], the “Log P” value is 0.6 and the Solubility is reported as 0.0682 mg/mL (≈ 194 µM). Further, in the data set with diabetic mice, the intraepidermal nerve fibers entry is “prevented and reversed loss of intraepidermal nerve fibers”; the “motor nerve conduction velocity” value was “prevented deficits in motor nerve conduction velocity”; the sub-epidermal nerve plexus result was “prevented loss of sub-epidermal nerve plexus”; the tactile allodynia result is listed as “prevented tactile allodynia”. Besides, in the data set with diabetic mice, the thermal hypoalgesia result was “prevented and reversed the development of thermal hypoalgesia”.
For `O=C(CCNS(=O)(=O)c1cccc2nsnc12)N1CCN(c2ccncc2)CC1` [VU0255035], at M1R, the “selectivity to M1R relative to M2, M3, M4 and M5 receptors” value was 75 times.
